The record followed here is patent publication US10603345B2, “Pharmaceutical composition for treating respiratory disease” (Kunming Institute of Botany, The Chinese Academy of Sciences, priority 2015, dated 2020).

Assay type in all cases: in vivo
Experiment [1] has as its system KL-6 in serum of pulmonary fibrosis model mouse. In words: Effect on KL-6 in serum of pulmonary fibrosis model mouse. The conditions noted are these: ELISA, bleomycin pulmonary fibrosis mouse, ig 28 d, dose/kg: prednisone acetate 5 mg, Test group 1 50, 2 25, 3 12.5, picrinine 5.0, vallesamine 3.0, scholaricine 3.5, 19-epi-scholaricine 1.0 mg, x ± SD. As to the method:
(§1) Animal source: 30˜35 g male ICR mouse, from laboratory animal department of Kunming Medical University, License No. SCXK (Dian) 2011-0004.
(§2) Method and route: bleomycin was used to induce mouse pulmonary fibrosis, and after intragastrical administration for 28 d at a dose of 20 mL/kg, the animal was sacrificed at the 29th day.
(§3) Group and dose: Sham group, Model group, Positive control group, prednisone acetate (5 mg/kg) group, Test group 1: picrinine, vallesamine, scholaricine and 19-epischolaricine prepared in Example 1.7 were mixed at different ratios by weight (50 mg/kg), Test group 2: the alkaloid composition (25 mg/kg) prepared in Example 1.5, Test group 3: the alkaloid composition (12.5 mg/kg) prepared in Example 1.6, Picrinine group (5.0 mg/kg), Vallesamine group (3.0 mg/kg), Scholaricine group (3.5 mg/kg), and 19-epischolaricine group (1.0 mg/kg).
(§4) Positive control drug: prednisone acetate tablet, Approval number: H33021207, 5 mg/tablet, produced by Zhejiang Xianju Pharmaceutical Co., Ltd., Batch No. 140146.
(§5) Sample preparation: all the samples were prepared by using 0.5% carboxymethylcellulose sodium (0.5% CMC-Na).
Group and dose: in Test group 1, the ratio of picrinine, vallesamine, scholaricine and 19-epischolaricine by weight was 45:38:30:8, and the other groups and doses thereof were as described in Example 12.
Test index: KL-6 in serum was used as index, and was determined by enzyme linked immunosorbent assay.
(In an ELISA, binding on a coated surface is turned into a signal by an enzyme label.)

Experiment [2] concerns Col-1 in homogenate of pulmonary fibrosis model mouse. Description: Effect on Col-1 in homogenate of pulmonary fibrosis model mouse. As to conditions: ELISA, bleomycin pulmonary fibrosis mouse, ig 28 d, dose/kg: prednisone acetate 5 mg, Test group 1 50, 2 25, 3 12.5, picrinine 5.0, vallesamine 3.0, scholaricine 3.5, 19-epi-scholaricine 1.0 mg, x ± SD. The protocol: as §1, §2, §3, §4, §5
Group and dose: in Test group 1, the ratio of picrinine, vallesamine, scholaricine and 19-epischolaricine by weight was 20:17:17:4, and the other groups and doses thereof were as described in Example 12.
Test index: Col-1 in homogenate was used as index, and was determined by enzyme linked immunosorbent assay.

Experiment [3] has as its system MDA in serum and homogenate of pulmonary fibrosis model mouse. Description: Effect on MDA in serum and homogenate of pulmonary fibrosis model mouse. As to conditions: bleomycin pulmonary fibrosis mouse, ig 28 d, dose/kg: prednisone acetate 5 mg, Test group 1 50, 2 25, 3 12.5, picrinine 5.0, vallesamine 3.0, scholaricine 3.5, 19-epi-scholaricine 1.0 mg, x ± SD. The protocol:
as §1, §2, §3, §4, §5
Group and dose: in Test group 1, the ratio of picrinine, vallesamine, scholaricine and 19-epischolaricine by weight was 8:5:5:1, and the other groups and doses thereof were as described in Example 12.
Test index: MDA in serum and homogenate was used as index, and was determined by thiobabituric acid method.

Experiment [4] concerns WBC count and eosinophil percentage in BALF of asthma model mouse. Description: Effect on WBC count and eosinophil percentage in BALF of asthma model mouse. As to conditions: OVA-induced asthma mouse, ig 7 d, dose/kg: dexamethasone 2 mg, Test group 1 50, 2 25, picrinine 5.0, vallesamine 3.0, scholaricine 3.0, 19-epi-scholaricine 3.5 mg, x ± SD. As to the method:
(§6) Animal source: 25˜30 g male ICR mouse, from laboratory animal department of Kunming Medical University, License No. SCXK (Dian) 2011-0004.
(§7) Method and route: ovalbumin (OVA) was used to induce mouse asthma model, and after intragastrical administration for 7 d at a dose of 20 mL/kg, the animal was sacrificed at the eighth day.
(§8) Test group 1: picrinine, vallesamine, scholaricine and 19-epischolaricine prepared in Example 1.7 were homogeneously mixed at different ratios by weight (50 mg/kg), Test group 2: the alkaloid composition prepared in Example 1.4 (25 mg/kg). […]
as §5
Group and dose: in Test group 1, the ratio of picrinine, vallesamine, scholaricine and 19-epischolaricine by weight was 41:45:28:7, and the other groups and doses thereof were as described in Example 11.
Test index: number of white blood cells (WBCs) and number of eosinophil in bronchoalveolar lavage fluid (BALF) were used as index, and were determined by full-automatic hemocytometer.

Experiment [5] has as its system IL-10 in BALF of asthma model mouse. Description: Effect on IL-10 in BALF of asthma model mouse. The conditions noted are these: ELISA, ig 7 d, dose/kg: dexamethasone 2.0 mg, Test group 1 50, 2 25, picrinine 5.0, vallesamine 3.0, scholaricine 3.0, 19-epi-scholaricine 3.5 mg, x ± SD. The protocol: as §6, §7, §8, §5
Group and dose: in Test group 1, the ratio of picrinine, vallesamine, scholaricine and 19-epischolaricine by weight was 18:13:14:3, and the other groups and doses thereof were as described in Example 11.
Test index: IL-10 in BALF was used as index, and was determined by enzyme linked immunosorbent assay.

For experiment [6], the system named is SOD in serum and homogenate of pulmonary fibrosis model mouse. In words: Effect on SOD in serum and homogenate of pulmonary fibrosis model mouse. As to conditions: bleomycin pulmonary fibrosis mouse, ig 28 d, dose/kg: prednisone acetate 5 mg, Test group 1 50, 2 25, 3 12.5, picrinine 5.0, vallesamine 3.0, scholaricine 3.5, 19-epi-scholaricine 1.0 mg, x ± SD. As to the method:
as §1, §2, §3, §4, §5
Group and dose: in Test group 1, the ratio of picrinine, vallesamine, scholaricine and 19-epischolaricine by weight was 10:7:7:2, and the other groups and doses thereof were as described in Example 12.
Test index: SOD in serum and homogenate was used as index, and was determined by xanthine oxidase method.

Consider `COC(=O)C1=C2Nc3c(O)cccc3[C@@]23CCN2C[C@@H]([C@H](C)O)[C@@H]1C[C@H]23` [19-epi-scholaricine, 19-epischolaricine], for which, in experiment [1], the KL-6 was determined as 4.10 ± 0.97 U/mg prot. In experiment [2], the Col-1 came to 6.5 ± 2.2 μg/g prot. The “MDA Homogenate” value in experiment [3] (homogenate) is given as 22.0 ± 7.4 nmol/mg prot. Moreover, in experiment [3] (serum), the “MDA Serum” value was determined as 0.66 ± 0.18 nmol/mg prot.

Regarding `C/C=C1/CN2[C@@H]3C[C@@]45c6ccccc6N[C@]4(O3)[C@@H]2C[C@@H]1[C@H]5C(=O)OC` [picrinine], in experiment [4], the Eosinophil percentage was found to be 6.18 ± 3.61% and the “Number of WBCs” value was 0.91 ± 0.50 ×10^9/L. Further, in experiment [5], the IL-10 is reported as 13.00 ± 3.15 pg/mL. In experiment [1], this molecule showed a KL-6 of 3.91 ± 0.60 U/mg prot. The “SOD homogenate” value in experiment [6] (homogenate) is listed as 53.2 ± 8.9 U/mg prot. For the same molecule, in experiment [6] (serum), the “SOD Serum” value stood at 17.2 ± 5.1 U/mg prot.

Take `C/C=C1/CN2CC[C@@H]1[C@@](CO)(C(=O)OC)c1[nH]c3ccccc3c1C2` [vallesamine]: in experiment [4], the Eosinophil percentage was found to be 6.48 ± 2.84% and the “Number of WBCs” value is on record as 0.73 ± 0.35 ×10^9/L. Moreover, the IL-10 in experiment [5] is on record as 14.83 ± 3.49 pg/mL. Further, the Col-1 in experiment [2] worked out at 6.3 ± 2.7 μg/g prot.
